Results published in patent publication US6653476B2, “Thienopyridine derivatives, their production and use” (Takeda Chemical Industries, Ltd., priority 2000, dated 2003).

Test system: not given
Assay: not given
Settings: not given

| melting point | Compound |
| --- | --- |
| 217 to 218.5 °C (dec.) | COc1ccc(-c2c(Cl)c(CN3C(=O)CCC3=O)nc3sc4c(c23)CC[S@+]([O-])C4)cc1 [Example 46, (S)-1-{[3-chloro-4-(4-methoxyphenyl)-7-oxido-5,8-dihydro-6H-thiopyrano[4′,3′:4,5]thieno[2,3-b]pyridin-2-yl]methyl}-2,5-pyrrolidinedione] |
| 272 to 273 °C | CC(=O)Oc1ccc(-c2c(Cl)c(CN3C(=O)CCC3=O)nc3sc4c(c23)CCS(=O)(=O)C4)cc1 [Example 64, 4-{3-chloro-2-[(2,5-dioxo-1-pyrrolidinyl)methyl]-7,7-dioxido-5,8-dihydro-6H-thiopyrano[4′,3′:4,5]thieno[2,3-b]pyridin-4-yl}phenylacetate] |
| 175 to 176 °C | CC(C)(C)OC(=O)COc1ccc(-c2c(Cl)c(CN3C(=O)CCC3=O)nc3sc4c(c23)CC[S+]([O-])C4)cc1 (centres unmarked) [Example 113, tert-butyl (4-{3-chloro-2-[(2,5-dioxo-1-pyrrolidinyl)methyl]-7-oxido-5,8-dihydro-6H-thiopyrano[4′,3′:4,5]thieno(2,3-b]pyridin-4-yl}phenoxy)-acetate] |
| 199 to 200 °C | CN(C)CC(=O)Oc1ccc(-c2c(Cl)c(CN3C(=O)CCC3=O)nc3sc4c(c23)CCS(=O)(=O)C4)cc1.Cl |
| 260 to 261 °C | O=C(O)COc1ccc(-c2c(Cl)c(CN3C(=O)CCC3=O)nc3sc4c(c23)CCS(=O)(=O)C4)cc1 [Example 116, (4-{3-chloro-2-[(2,5-dioxo-1-pyrrolidinyl)methyl]-7,7-dioxido-5,8-dihydro-6H-thiopyrano-[4′,3′:4,5]-thieno[2,3-b]pyridin-4-yl}phenoxy)acetic acid] |
| 191 to 192 °C | CC(C)(C)OC(=O)COc1ccc(-c2c(Cl)c(CN3C(=O)CCC3=O)nc3sc4c(c23)CCSC4)cc1 [Example 112, tert-butyl (4-{3-chloro-2-[(2,5-dioxo-1-pyrrolidinyl)methyl]-5,8-dihydro-6H-thiopyrano[4′,3′:4,5]-thieno[2,3-b]pyridin-4-yl}phenoxy)acetate] |
| 215 to 216 °C | COc1ccc(-c2c(Cl)c(CN3C(=O)CCC3=O)nc3sc4c(F)c(OC)ccc4c23)cc1 [Example 60, 1-{[3-chloro-8-fluoro-7-methoxy-4-(4-methoxyphenyl)[1]-benzothieno[2,3-b]pyridin-2-yl]methyl}-2,5-pyrrolidinedione] |
| 268 to 269 °C | CCC(=O)Oc1ccc(-c2c(Cl)c(CN3C(=O)CCC3=O)nc3sc4c(c23)CCS(=O)(=O)C4)cc1 [Example 65] |
| 204 to 205 °C | CC(C)(C)OC(=O)COc1ccc(-c2c(Cl)c(CN3C(=O)CCC3=O)nc3sc4c(c23)CCS(=O)(=O)C4)cc1 [Example 114, tert-butyl (4-{3-chloro-2-[(2,5-dioxo-1-pyrrolidinyl)methyl]-7,7-dioxido-5,8-dihydro-6H-thiopyrano[4′,3′:4,5]thieno[2,3-b]pyridin-4-yl}phenoxy)acetate] |
| 215 to 216 °C | CCOC(=O)COc1ccc(-c2c(Cl)c(CN3C(=O)CCC3=O)nc3sc4c(c23)CCS(=O)(=O)C4)cc1 [Example 110, ethyl (4-{3-chloro-2-[(2,5-dioxo-1-pyrrolidinyl)methyl]-7,7-dioxidO-5,8-dihydro-6H-thiopyrano[4′,3′:4,5]thieno[2,3-b]pyridin-4-yl}phenoxy)acetate] |
| 268 to 269 °C | COc1ccc(-c2c(Cl)c(CN3C(=O)CCC3=O)nc3sc4c(c23)CC[S+]([O-])C4)cc1 (centres unmarked) [Example 22, 1-{[3-Chloro-4-(4-methoxyphenyl)-7-oxido-5,8-dihydro-6H-thiopyrano[4′,3′:4,5]thieno[2,3-b]pyridin-2-yl]methyl}-2,5-pyrrolidinedione] |
| 205 to 206 °C | O=C(O)COc1ccc(-c2c(Cl)c(CN3C(=O)CCC3=O)nc3sc4c(c23)CC[S+]([O-])C4)cc1 (centres unmarked) [Example 115, (4-{3-chloro-2-[(2,5-dioxo-1-pyrrolidinyl)methyl]-7-oxido-5,8-dihydro-6H-thiopyrano[4′,3′:4,5]thieno[2,3-b]pyridin-4-yl}phenoxy)acetic acid] |

Test system: Adjuvant Arthritis in Rats
Assay: Effect on adjuvant arthritis in rats (footpad swelling)
Format: in vivo
Settings: male Lewis rats, 3.13 mg/kg/day orally once daily for 14 days, left footpad edema on Day 14; ** p < 0.01 vs. control
Description: The test compound was suspended in 0.5% methyl cellulose and administered orally once daily for 14 days to male Lewis rats (7-week old, Japan Clea), which had been sensitized by the intradermal injection of 0.05 ml Freund's complete adjuvant (0.5% suspension of killed Mycobacterium tuberculosis in liquid paraffin) into the right hind footpad. Immediately before the sensitization (Day 0) and on 14 days after the administration (Day 14), the volume of the edema on the left footpad was measured by using a plethysmometer (manufactured by Ugo Basile Company, Italy) and the suppression rate (%) of footpad swelling relative to the unsensitized rats was calculated according to the following equation.
Suppression rate of footpad swelling (%)={1-[(volume of footpad edema in the treatment group)−(volume of footpad edema in the unsensitized group)]/[(volume of footpad edema in the non-treatment group)−(volume of footpad edema in the unsensitized group)]}×100
The results were expressed by the mean±S.E. in each group (n=6) and tested by Dunnet's comparison with a significance level of 5%.

| Compound | Suppression rate of footpad swelling (%) |
| --- | --- |
| 3-chloro-2-[(2,5-dioxopyrrolidin-1-yl)methyl]-5,6,7,8-tetrahydro-7-oxo-4-(4-methoxyphenyl)[1]-benzothieno[2,3-b]pyridine ethylene ketal [Example 13] | 77** % |
| COc1ccc(-c2c(Cl)c(CN3C(=O)CCC3=O)nc3sc4c(c23)CC[S+]([O-])C4)cc1 (centres unmarked) [Example 22, 1-{[3-Chloro-4-(4-methoxyphenyl)-7-oxido-5,8-dihydro-6H-thiopyrano[4′,3′:4,5]thieno[2,3-b]pyridin-2-yl]methyl}-2,5-pyrrolidinedione] | 88** % |
